Tests used:
Type in all cases: biochemical
[1] = target: T1, calpain-I isolated from human erythrocytes (Homo sapiens, UniProt P07384); test: Calpain I kinetic fluorescence enzyme inhibition assay; conditions: apparent Ki from IC50 by Cheng-Prussoff; average of 2 to 4 dose-effect plots
T1 construct: calpain-I—isolated from human erythrocytes; purchased Calbiochem 208713; host or cells: human erythrocytes (tissue isolate)
T1 sequence (P07384 1-714): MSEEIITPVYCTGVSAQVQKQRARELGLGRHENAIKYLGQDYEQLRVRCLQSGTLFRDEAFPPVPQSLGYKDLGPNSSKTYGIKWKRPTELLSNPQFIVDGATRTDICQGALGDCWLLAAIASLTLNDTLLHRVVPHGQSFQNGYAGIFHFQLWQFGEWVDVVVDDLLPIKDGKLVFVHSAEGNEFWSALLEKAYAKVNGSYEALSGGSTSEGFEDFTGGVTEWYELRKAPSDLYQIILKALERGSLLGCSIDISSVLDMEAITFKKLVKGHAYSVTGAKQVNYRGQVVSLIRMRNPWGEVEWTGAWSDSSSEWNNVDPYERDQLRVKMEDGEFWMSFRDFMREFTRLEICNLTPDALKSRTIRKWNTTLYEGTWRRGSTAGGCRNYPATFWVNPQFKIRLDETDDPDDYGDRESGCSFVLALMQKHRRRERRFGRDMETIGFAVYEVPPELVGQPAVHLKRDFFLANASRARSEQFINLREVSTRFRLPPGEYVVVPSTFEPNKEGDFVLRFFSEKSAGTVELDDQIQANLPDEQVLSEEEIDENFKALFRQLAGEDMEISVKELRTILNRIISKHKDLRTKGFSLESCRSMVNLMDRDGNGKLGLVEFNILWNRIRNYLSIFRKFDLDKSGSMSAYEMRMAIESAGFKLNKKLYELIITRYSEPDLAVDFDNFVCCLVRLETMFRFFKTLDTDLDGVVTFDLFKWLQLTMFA
T1 sequence (P04632 1-268 partner): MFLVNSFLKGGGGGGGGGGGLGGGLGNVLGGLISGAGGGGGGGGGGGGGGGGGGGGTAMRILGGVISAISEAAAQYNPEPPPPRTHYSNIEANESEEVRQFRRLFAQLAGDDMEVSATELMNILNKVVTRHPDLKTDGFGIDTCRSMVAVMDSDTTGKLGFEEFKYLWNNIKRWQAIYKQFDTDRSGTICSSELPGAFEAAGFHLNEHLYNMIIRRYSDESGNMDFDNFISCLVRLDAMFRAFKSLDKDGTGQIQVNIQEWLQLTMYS

[2] = target: T2, cathepsin B isolated from human liver (Homo sapiens, UniProt P07858); test: Cathepsin B kinetic fluorescence enzyme inhibition assay; conditions: selectivity ratio versus calpain I
T2 construct: cathepsin B—isolated from human liver; purchased Calbiochem 219362; host or cells: human liver (tissue isolate)
How it was run: (§1)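 Inhibition is measured at room temperature in cysteine-containing MES buffer, pH 6.0, by continuous fluorescence at 460 nm. Cathepsin S (0.5 nM) uses 20 μM Z-Val-Val-Arg-AMC; L (1 nM) and B (0.25 nM) use Z-Phe-Arg-AMC at 2 and 100 μM respectively.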

[3] = target: T3, cathepsin L isolated from human liver (Homo sapiens, UniProt P07711); test: Cathepsin L kinetic fluorescence enzyme inhibition assay; conditions: selectivity ratio versus calpain I
T3 construct: cathepsin L—isolated from human liver; purchased Calbiochem 219402; host or cells: human liver (tissue isolate)
T3 sequence (P07711 114-333): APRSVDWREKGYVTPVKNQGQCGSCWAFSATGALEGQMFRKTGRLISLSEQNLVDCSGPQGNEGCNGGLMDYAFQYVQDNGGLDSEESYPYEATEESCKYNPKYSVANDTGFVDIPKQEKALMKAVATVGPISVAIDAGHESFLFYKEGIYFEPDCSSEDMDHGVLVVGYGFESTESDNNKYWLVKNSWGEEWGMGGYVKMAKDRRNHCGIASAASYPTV
How it was run: as §1

[4] = target: T4, recombinant human cathepsin S (Homo sapiens, UniProt P25774); test: Cathepsin S kinetic fluorescence enzyme inhibition assay; conditions: selectivity ratio versus calpain I
T4 construct: purchased Calbiochem 219343; host or cells: E. coli
T4 sequence (P25774 115-331): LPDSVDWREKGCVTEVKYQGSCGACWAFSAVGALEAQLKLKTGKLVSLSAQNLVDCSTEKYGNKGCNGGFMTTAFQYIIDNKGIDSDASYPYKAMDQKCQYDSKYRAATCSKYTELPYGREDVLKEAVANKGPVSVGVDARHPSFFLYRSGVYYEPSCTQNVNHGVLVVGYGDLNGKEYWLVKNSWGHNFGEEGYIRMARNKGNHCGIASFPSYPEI
How it was run: as §1

[5] = target: T5, cathepsin K activated from recombinant human procathepsin K (Homo sapiens, UniProt P43235); test: Cathepsin K kinetic fluorescence enzyme inhibition assay; conditions: selectivity ratio versus calpain I
T5 construct: purchased Calbiochem 342001; host or cells: E. coli
T5 sequence (P43235 115-329): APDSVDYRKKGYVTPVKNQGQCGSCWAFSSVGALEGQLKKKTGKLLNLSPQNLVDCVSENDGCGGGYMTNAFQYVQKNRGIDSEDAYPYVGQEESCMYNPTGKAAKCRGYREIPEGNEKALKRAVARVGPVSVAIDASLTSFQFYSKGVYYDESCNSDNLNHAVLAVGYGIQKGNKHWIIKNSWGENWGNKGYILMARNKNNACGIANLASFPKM
Procedure: The following solutions and buffers were employed: • HBS (for 40 ml): 800 μl M HEPES; 2.16 ml 100 mM KCl; 4.8 ml 1M NaCl; 3.59 ml 5% glucose; 60 μl μM MgSO4; 400 μl 100 mM Na pyruvate, 28.19 ml water; pH 7.2-7.5. • lysis buffer (for 20 ml): 400 μl M Tris pH 8.2; 2.74 ml 1M NaCl; 520 μl 0.5M EDTA; 2 ml 10% triton X-100; 0.8 ml (=1:25) CompletePlus (1 tablet/2 ml H2O); 200 μl 100 mM Pefabloc; 13.34 ml water, pH 8.2. • TBST (10×) (for 1 l): 100 mM Tris (12.1 g); 1.5M NaCl (87 g); 1% Tween 20 (10 g), adjusted to pH 8. I Enzyme Inhibition In Vitro: • Testing for blockade of the corresponding enzymic activities was carried out by means of kinetic fluorescence assays (excitation 390 nm, emission 460 nm). • Apparent Ki values were calculated from the experimentally determined IC50 values by the Cheng-Prussoff relation assuming a reversible competitive enzyme inhibition. The Km values of the substrates used under the assay conditions indicated above were: 90 μM (Z-Phe-Arg-AMC, cathepsin B), 10 μM (Z-Gly-Pro-Arg-AMC, cathepsin K), 2 μM (Z-Phe-Arg-AMC, cathepsin L), and 30 μM (Z-Val-Val-Arg-AMC, cathepsin S). • The indicated Ki values are averages of the inhibition constants calculated on the basis of 2 to 4 independent dose-effect plots.
The following assays were used: • 1. Calpain I: • 20 nM calpain-I—isolated from human erythrocytes (Calbiochem #208713), 100 μM Suc-Leu-Tyr-AMC (Bachem #1-1355) as substrate in buffer with 62 mM imidazole, 0.3 mM CaCl2, 0.10% CHAPS, 0.05% BSA, 1 mM DTT at pH 7.3 and room temperature. • 2. Cathepsin B: • 0.25 nM cathepsin B—isolated from human liver (Calbiochem #219362), 100 μM Z-Phe-Arg-AMC (Bachem #I-1160) as substrate 50 mM MES, 2 mM EDTA, 0.05% Brij 35, 2.5 mM L-cysteine, pH 6.0, room temperature. • 3. Cathepsin K: • 3 nM cathepsin K—activated from recombinant human procathepsin K from E. coli (Calbiochem #342001), 10 μM Z-Gly-Pro-Arg-AMC (Biomol #P-142) as substrate in 50 mM MES, 2 mM EDTA, 0.05% Brij 35, 2.5 mM L-cysteine, pH 6.0, room temperature. • 4. Cathepsin L: • 1 nM cathepsin L—isolated from human liver (Calbiochem #219402), 2 μM Z-Phe-Arg-AMC (Bachem #1-1160) as substrate in 50 mM MES, 2 mM EDTA, 0.05% Brij 35, 2.5 mM L-cysteine, pH 6.0, room temperature. • 5. Cathepsin S: • 0.5 nM recombinant human cathepsin S from E. coli (Calbiochem #219343), 20 μM Z-Val-Val-Arg-AMC (Bachem #1-1540) as substrate in 50 mM MES, 2 mM EDTA, 0.05% Brij 35, 2.5 mM L-cysteine, pH 6.0, room temperature. • The results of the in vitro determination are indicated in Table 1. The following abbreviations are used in Table 1: • The “Calpain activity” column, ++ stands for a calpain Ki (Ki(calpain)) of ≦40 nM and + means: 40 nM<Ki(Calpain)≦100 nM. • The “Sel. cat. B” column indicates the Ki(cathepsin B)/Ki(calpain) ratio. In this connection, ++ means a Ki(cathepsin B)/Ki(calpain) ratio of ≧30 and + means 10≦Ki(cathepsin B)/Ki(calpain)<30. • The “Sel. cat. K” column indicates the Ki(cathepsin K)/Ki(calpain) ratio. In this connection, ++ means a Ki(cathepsin K)/Ki(calpain) ratio of ≧30 and + means 10≦Ki(cathepsin K)/Ki(calpain)<30. • The “Sel. cat. L” column indicates the Ki(cathepsin L)/Ki(calpain) ratio. In this connection, ++ means a Ki(cathepsin L)/Ki(calpain) ratio of ≧50 and + means 30≦Ki(cathepsin L)/Ki(calpain)<50. • The “Sel. cat. S” column indicates the Ki(cathepsin S)/Ki(calpain) ratio. In this connection, ++ means a Ki(cathepsin S)/Ki(calpain) ratio of ≧100 and + means 50≦Ki(cathepsin S)/Ki(calpain)<100.

Compound	Ki [1] [nM]	Sel cat. B (Ki(cathepsin B)/Ki(calpain) ratio) [2]	Sel cat. L (Ki(cathepsin L)/Ki(calpain) ratio) [3]	Sel cat. S (Ki(cathepsin S)/Ki(calpain) ratio) [4]	Sel cat. K (Ki(cathepsin K)/Ki(calpain) ratio) [5]
NC(=O)C(=O)C(Cc1ccccc1)NC(=O)c1cccnc1-n1ccc(-c2ccccc2)n1 (centres unmarked) [Example 5, N-(3-Amino-1-benzyl-2,3-dioxopropyl)-2-(3-phenyl-1H-pyrazol-1-yl)nicotinamide]	≤ 40	+ (10≦Ki(cathepsin B)/Ki(calpain)<30)	++ (Ki(cathepsin L)/Ki(calpain) ratio of ≧50)	++ (Ki(cathepsin S)/Ki(calpain) ratio of ≧100)	+ (10≦Ki(cathepsin K)/Ki(calpain)<30)
NC(=O)C(=O)C(Cc1ccccc1)NC(=O)c1cccnc1-n1ccc(-c2ccccn2)n1 (centres unmarked) [Example 35, N-(3-Amino-1-benzyl-2,3-dioxopropyl)-2-(3-pyridin-2-yl-1H-pyrazol-1-yl)nicotinamide]	40 to 100	+ (10≦Ki(cathepsin B)/Ki(calpain)<30)	++ (Ki(cathepsin L)/Ki(calpain) ratio of ≧50)	++ (Ki(cathepsin S)/Ki(calpain) ratio of ≧100)	+ (10≦Ki(cathepsin K)/Ki(calpain)<30)
NC(=O)C(=O)C(Cc1ccccc1)NC(=O)c1cccnc1-n1ccc(-c2ccc(F)cc2)n1 (centres unmarked) [Example 38, N-(3-Amino-1-benzyl-2,3-dioxopropyl)-2-[3-(4-fluorophenyl)-1H-pyrazol-1-yl]nicotinamide]	40 to 100	+ (10≦Ki(cathepsin B)/Ki(calpain)<30)	++ (Ki(cathepsin L)/Ki(calpain) ratio of ≧50)	++ (Ki(cathepsin S)/Ki(calpain) ratio of ≧100)	+ (10≦Ki(cathepsin K)/Ki(calpain)<30)
COc1ccc(-c2ccn(-c3ncccc3C(=O)NC(Cc3ccccc3)C(=O)C(N)=O)n2)cc1 (centres unmarked) [Example 48, N-(3-Amino-1-benzyl-2,3-dioxopropyl)-2-[3-(4-methoxyphenyl)-1H-pyrazol-1-yl]nicotinamide]	40 to 100	+ (10≦Ki(cathepsin B)/Ki(calpain)<30)	++ (Ki(cathepsin L)/Ki(calpain) ratio of ≧50)	++ (Ki(cathepsin S)/Ki(calpain) ratio of ≧100)	+ (10≦Ki(cathepsin K)/Ki(calpain)<30)
NC(=O)C(=O)C(Cc1ccc(OC(F)(F)F)cc1)NC(=O)c1cccnc1-n1ccc(-c2cccc(C(F)(F)F)c2)n1 (centres unmarked) [Example 134, N-[3-Amino-2,3-dioxo-1-({4-[(trifluoromethyl)oxy]phenyl}methyl)propyl]-2-{3-[3-(trifluoromethyl)phenyl]-1H-pyrazol-1-yl}pyridine-3-carboxamide]		++ (Ki(cathepsin B)/Ki(calpain) ratio of ≧30)	+ (30≦Ki(cathepsin L)/Ki(calpain)<50)	+ (50≦Ki(cathepsin S)/Ki(calpain)<100)	++ (Ki(cathepsin K)/Ki(calpain) ratio of ≧30)
COc1ccc(OC)c(-c2ccn(-c3ncccc3C(=O)NC(Cc3ccccc3)C(=O)C(N)=O)n2)c1 (centres unmarked) [Example 151, N-[3-Amino-2,3-dioxo-1-(phenylmethyl)propyl]-2-{3-[2,5-bis(methyloxy)phenyl]-1H-pyrazol-1-yl}pyridine-3-carboxamide]	40 to 100	++ (Ki(cathepsin B)/Ki(calpain) ratio of ≧30)	++ (Ki(cathepsin L)/Ki(calpain) ratio of ≧50)		++ (Ki(cathepsin K)/Ki(calpain) ratio of ≧30)
N-{3-Amino-1-[(4-fluorophenyl)methyl]-2,3-dioxopropyl}-2-[3-(2-chloro-3-fluorophenyl)-1H-pyrazol-1-yl]pyridine-3-carboxamide [Example 154]		++ (Ki(cathepsin B)/Ki(calpain) ratio of ≧30)	++ (Ki(cathepsin L)/Ki(calpain) ratio of ≧50)	++ (Ki(cathepsin S)/Ki(calpain) ratio of ≧100)	++ (Ki(cathepsin K)/Ki(calpain) ratio of ≧30)

From US7728012B2, “Carboxamide compounds and their use as calpain inhibitors” (Abbott GmbH & Co. KG, priority 2006, dated 2010)
